# Reference: US20230009145A1, “INHIBITION OF TMEM16A BY BENZBROMARONE OR NICLOSAMIDE FOR TREATING POLYCYSTIC KIDNEY DISEASE AND/OR POLYCYSTIC LIVER DISEASE” (UNIVERSITÄT REGENSBURG, priority 2019, published 2023)
# “Also recorded” adds a separate entry of the source.
# Assays:
# M1 collecting duct cells [1] = assay: M1 renal organoid / cyst model (organoid/cyst volume in matrigel); type: cell-based, mouse; details: for increase in cyst volume upon knockdown of PKD1/PKD2: M1 organoids, shPKD1/shPKD2, 5 μM inhibitor
# Description: M1 cells were resuspended as a single-cell suspension in 50/50% Matrigel/type I collagen and transferred into 24-well plates (30×10^3 cells/well, four wells per condition) for 9 days. Medium was changed every 3 days. Every 3 days thirty random visual fields per well were photographed with an Axiovert 200 microscope (Zeiss, Germany). Cyst area of the lumina (˜30-150 cysts per condition and single experimental procedure) were measured with AxioVision (Zeiss, Germany). Cyst volume was then estimated using the formula for the volume of a sphere, 4/3πr^3.
# M1 collecting duct cells [2] = assay: Ki-67 proliferation staining in M1 organoids/cysts; type: cell-based, mouse; details: M1 organoids, shPKD1/shPKD2, 5 μM inhibitor
# Description: M1 cells grown under confluent conditions for 4 days on glass coverslips and M1 organoids grown for 6 days were fixed for 10 min with methanol at −20° C. Organoids were isolated with ice cold 5 mM EDTA in PBS and seeded in poly-L-lysine coated coverslips. After seeded, cells were fixed for 10 min with methanol at −20° C. After washing, the cells were permeabilized with 0.5% (v/v, PBS) Triton X-100 for 10 min and blocked with 1% (w/v, PBS) bovine serum albumin for 1 h at room temperature. The cells were incubated overnight with primary antibodies (moo) against rabbit anti-TMEM16A (Davids Biotechnologie, Regensburg, Germany), or rat anti-Ki-67 (DAKO, M7249, Germany) or mouse anti-acetylated tubulin (T7451, Sigma-Aldrich, Germany). Binding of the primary antibody was visualized by incubation with appropriate secondary antibodies conjugated with Alexa Fluor 488 or Alexa Fluor 546 (1:300, Molecular Probes, Invitrogen). Nuclei were stained with Hoe33342 ([…] PBS, AppliChem, Darmstadt, Germany). Glass coverslips were mounted on glass slides with fluorescent mounting medium (DakoCytomation, Hamburg, Germany) and examined with an ApoTome Axiovert 200M fluorescence microscope (Zeiss, Germany).
# [3] = tested on: mouse primary renal epithelial and M1 collecting duct cells; assay: Measurement of [Ca2+]i (Fura-2); type: cell-based; details: for enhanced Ca2+ entry (SOCE) / enhanced CPA-induced store release: PKD1/PKD2 knockout cells; for enhanced Ca2+ entry (SOCE): 5 μM; for enhanced CPA-induced store release: CPA 10 μM, inhibitor 5 μM
# Description: Primary cilium and membrane Ca^2+ signals were detected after MDCK M2 and C7 cell were transfected with 5HT6-mCherry-GECO1.0 (5HT6-GECO, Addgene, Cambridge, Mass., USA). Cells were grown to confluence in glass coverslips and serum starved for 4-6 days to induce cilium formation. Afterwards, the cells were mounted and perfused in Ringer's solution. The mCherry fluorescence of the indicator was used to localize the Ca^2+ sensor. Therefore, before each experiment, a photo was taken exciting the 5HT6-GECO at 560 nm, and the emission was recorded between 620±30 nm using a CCD-camera (CoolSnap HQ, Visitron Systems, Germany). To measure the ciliary Ca^2+ changes, 5HT6-GECO was excited at 485/405 nm, and the emission was recorded between 535±12.5 nm. The results for [Ca^2+ ]cilium and [Ca^2+]cyt were obtained at 485/405 nm changes and given in ratio. Measurement of the global cytosolic Ca^2+ changes were performed as described recently. In brief, cells were loaded with 5 μM Fura-2, AM (Molecular Probes) in OptiMEM (Invitogen) with 0.02% pluronic (Molecular Probes) for 1 h at RT and 30 min at 37° C. Fura-2 was excited at 340/380 nm, and the emission was recorded between 470 and 550 nm using a CCD-camera (CoolSnap HQ, Visitron Systems, Germany). Control of experiment, imaging acquisition, and data analysis were done with the software package Meta-Fluor (Universal imaging, USA). [Ca2+]i was calculated from the 340/380 nm fluorescence ratio after background subtraction. The formula used to calculate [Ca^2+]i was [Ca^2+]i=Kd×(R−Rmin)/(Rmax−R)×(Sf2/Sb2), where R is the observed fluorescence ratio. The values Rmax and Rmin (maximum and minimum ratios) and the constant Sf2/Sb2 (fluorescence of free and Ca^2+-bound Fura-2 at 380 nm) were calculated using 1 μmol/liter ionomycin (Calbiochem), 5 μmol/liter nigericin, 10 μmol/liter monensin (Sigma), and 5 mmol/liter EGTA to equilibrate intracellular and extracellular Ca^2+ in intact Fura-2-loaded cells. The dissociation constant for the Fura-2·Ca^2+ complex was taken as 224 nmol/liter. ER Ca^2+ signals were detected in Ca^2+ sensor ER-LAR-GECO1 (Addgene, Cambridge, Mass., USA) expressing M1 cells. Cells were excited at 560 nm and emission was recorded between 620±30 nm.
# PKD1-/- mice (ADPKD) [4] = assay: Ki-67 cell proliferation in kidneys of PKD1-/- mice; type: in vivo, mouse; details: kidneys of PKD1-/- mice treated with benzbromarone
# Excerpt: Cell proliferation was examined in kidneys of control animals (PKD+/+) and PKD1−/− animals using the proliferation marker Ki-67.
# PKD1-/- mice (ADPKD) [5] = assay: Inhibition of cyst growth in vivo in PKD1-/- mice; parameters: species or system mouse; details: 1 μg/kg/day I.P. for 30 days
# Description: Inducible and tubule-specific PKD1 knockout (PKD1−/−) leads to ADPKD and polycystic kidney disease. Wt mice and mice with a knockout in the gene PKD1 were treated with benzbromarone (1 μg/kg/day intraperitoneal (I.P.) benzbromarone (BBR)) for 30 days starting 4 weeks after induction of the PKD1 knockout at postnatal (PN) 20-22.
# TMEM16A = biological target: T1, TMEM16A (Homo sapiens, UniProt Q5XXA6); details: references [1, 2]; cited from earlier work
# T1 sequence (Q5XXA6 1-986): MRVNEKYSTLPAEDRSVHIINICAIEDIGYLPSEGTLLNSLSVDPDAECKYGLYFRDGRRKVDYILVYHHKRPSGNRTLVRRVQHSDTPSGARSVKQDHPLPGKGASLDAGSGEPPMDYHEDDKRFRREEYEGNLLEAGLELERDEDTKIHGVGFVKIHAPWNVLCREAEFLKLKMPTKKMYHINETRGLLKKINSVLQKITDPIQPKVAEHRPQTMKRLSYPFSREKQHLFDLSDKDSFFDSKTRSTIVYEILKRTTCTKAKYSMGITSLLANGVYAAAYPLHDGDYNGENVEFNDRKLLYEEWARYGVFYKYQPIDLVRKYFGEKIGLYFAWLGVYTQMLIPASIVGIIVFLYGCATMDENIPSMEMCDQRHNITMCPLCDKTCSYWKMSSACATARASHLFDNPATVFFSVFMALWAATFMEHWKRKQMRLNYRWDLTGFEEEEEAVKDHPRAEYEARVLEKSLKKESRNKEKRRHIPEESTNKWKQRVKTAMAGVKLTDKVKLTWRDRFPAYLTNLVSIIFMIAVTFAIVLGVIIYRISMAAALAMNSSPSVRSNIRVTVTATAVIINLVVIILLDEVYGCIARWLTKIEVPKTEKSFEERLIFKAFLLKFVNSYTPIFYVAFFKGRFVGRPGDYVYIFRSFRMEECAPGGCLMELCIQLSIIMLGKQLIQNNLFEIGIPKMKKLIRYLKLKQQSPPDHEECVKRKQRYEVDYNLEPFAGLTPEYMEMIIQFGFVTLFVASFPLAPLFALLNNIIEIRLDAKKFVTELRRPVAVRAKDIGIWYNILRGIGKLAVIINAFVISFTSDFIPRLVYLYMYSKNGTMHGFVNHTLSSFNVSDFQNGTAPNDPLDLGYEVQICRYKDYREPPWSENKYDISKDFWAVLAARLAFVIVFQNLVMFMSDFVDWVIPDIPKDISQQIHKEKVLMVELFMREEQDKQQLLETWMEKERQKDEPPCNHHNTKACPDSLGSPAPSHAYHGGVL
# [6] = tested on: Polycystin-1-deficient collecting duct (plMDCK) cells; assay: plMDCK cyst growth in collagen I matrix; type: cell-based, dog; details: 10 μM forskolin, 5 days; for mean cyst volumes: 0.1 μM or 1 μM, vs control
# Description: Polycystin-1-deficient collecting duct ([…]) cells were resuspended within a collagen I matrix where they spontaneously form cysts and grow in a secretion-dependent manner in the presence of 10 μM forskolin for 5 days. Medium was supplemented with either 0.1 μM or 1 μM niclosamide or 0.1 μM or 1 μM nitazoxanide. Thereafter, cyst volumes were analyzed. […] The effect of niclosamide and derivatives thereof, e.g. nitazoxanide, on cyst growth was analyzed. Particularly, it was analyzed whether there is a dose-dependent effect on cyst growth. Polycystin-1-deficient collecting duct (p1MDCK) cells were resuspended in a collagen I matrix to form cysts in vitro and were cultured in the presence of […] forskolin for 5 days. The cells were treated with either 0.1 μM or 1 μM niclosamide, or with 0.1 μM or 1 μM of an exemplary niclosamide derivative, namely nitazoxanide.
structure (smiles),measurement,setting,value
CC(C)(C)C1CCc2c(sc(NC(=O)c3ccco3)c2C(=O)O)C1 (stereo not shown) [CaCCinhAO1],increase in cyst volume upon knockdown of PKD1/PKD2,M1 collecting duct cells [1],blocked increase in volume
same,increase in cyst volume upon knockdown of PKD1/PKD2,M1 collecting duct cells [1]; listed as CaCCinhA01,inhibition
same,increase in proliferation (Ki-67) upon knockdown of PKD1/PKD2,M1 collecting duct cells [2],blocked increase in volume and proliferation
same,increase in proliferation (Ki-67) upon knockdown of PKD1/PKD2,M1 collecting duct cells [2]; listed as CaCCinhA01,inhibition
COc1ccc(CCCOC(Cn2ccnc2)c2ccc(OC)cc2)cc1 (stereo not shown) [SK&F96365],enhanced Ca2+ entry (SOCE),[3],inhibited enhanced Ca^2+ entry
same,enhanced CPA-induced store release,[3],abolished enhanced CPA-induced store release
Cc1nnsc1C(=O)Nc1ccc(-n2nc(C(F)(F)F)cc2C(F)(F)F)cc1 [YM58483],enhanced Ca2+ entry (SOCE),[3],inhibited enhanced Ca^2+ entry
same,enhanced CPA-induced store release,[3],abolished enhanced CPA-induced store release
N=C(N)NC(=O)c1nc(Cl)c(N)nc1N [amiloride],M1 organoid volume when grown in amiloride,"M1 collecting duct cells [1]; M1 renal organoids, data not shown",increase their volume
CCc1oc2ccccc2c1C(=O)c1cc(Br)c(O)c(Br)c1 [benzbromarone],increase in cyst volume upon knockdown of PKD1/PKD2,M1 collecting duct cells [1],inhibition
same,increase in cyst volume upon knockdown of PKD1/PKD2,M1 collecting duct cells [1]; listed as Benzbromarone,blocked increase in volume
same,pathologic cell proliferation (Ki-67),PKD1-/- mice (ADPKD) [4],inhibition of pathologic cell proliferation; also recorded: largely abolished pathologic proliferation
same,cyst development / cyst growth,PKD1-/- mice (ADPKD) [5],remarkable delay in cyst development
same,cyst development / cyst growth,PKD1-/- mice (ADPKD) [5]; listed as Benzbromarone,significantly inhibits cyst growth
same,increase in proliferation (Ki-67) upon knockdown of PKD1/PKD2,M1 collecting duct cells [2],inhibition
same,increase in proliferation (Ki-67) upon knockdown of PKD1/PKD2,M1 collecting duct cells [2]; listed as Benzbromarone,blocked increase in volume and proliferation
same,inhibition of TMEM16A,TMEM16A,potently inhibit
CCCCNc1cc(C(=O)O)cc(S(N)(=O)=O)c1Oc1ccccc1 [bumetanide],formation of the M1 renal organoid,"M1 collecting duct cells [1]; M1 organoids without knockdown, bumetanide 100 μM continuously in matrigel",did not interfere with the formation of the organoid
same,increase in organoid volume upon knockdown of PKD1 or PKD2,"M1 collecting duct cells [1]; shPKD1/shPKD2 M1 cells, bumetanide 100 μM, 9 days",inhibited
Cn1c(=O)c2c(ncn2C)n(C)c1=O [caffeine],intracellular Ca2+,[3]; mouse wt and PKD1-/- primary renal epithelial and M1 collecting duct cells,did not increase intracellular Ca^2+
"O=C(Nc1ccc([N+](=O)[O-])cc1Cl)c1cc(Cl)ccc1O [niclosamide, 5-Chlor-N-(2-chlor-4-nitrophenyl)-2-hydroxybenzamid]",inhibition of TMEM16A,TMEM16A,potent inhibitor
same,mean cyst volumes,[6],inhibit cyst growth in a dose-dependent manner; also recorded: significantly decreased
same,"reduction in cyst volumes, 1 μM compared to 0.1 μM",[6],higher reduction in cyst volumes
CC(=O)Oc1ccccc1C(=O)Nc1ncc([N+](=O)[O-])s1 [nitazoxanide],mean cyst volumes,[6],inhibit cyst growth in a dose-dependent manner; also recorded: significantly decreased
same,"reduction in cyst volumes, 1 μM compared to 0.1 μM",[6],higher reduction in cyst volumes
